The test has as its target DNA-dependent protein kinase catalytic subunit (Homo sapiens, UniProt P78527). As to the kind of experiment: Inhibition of DNA-dependent protein kinase (DNA-PK) of HeLa cell nuclear cell extract. The test is classed as cell-free.
DNA-dependent protein kinase catalytic subunit, sequence (P78527 whole entry): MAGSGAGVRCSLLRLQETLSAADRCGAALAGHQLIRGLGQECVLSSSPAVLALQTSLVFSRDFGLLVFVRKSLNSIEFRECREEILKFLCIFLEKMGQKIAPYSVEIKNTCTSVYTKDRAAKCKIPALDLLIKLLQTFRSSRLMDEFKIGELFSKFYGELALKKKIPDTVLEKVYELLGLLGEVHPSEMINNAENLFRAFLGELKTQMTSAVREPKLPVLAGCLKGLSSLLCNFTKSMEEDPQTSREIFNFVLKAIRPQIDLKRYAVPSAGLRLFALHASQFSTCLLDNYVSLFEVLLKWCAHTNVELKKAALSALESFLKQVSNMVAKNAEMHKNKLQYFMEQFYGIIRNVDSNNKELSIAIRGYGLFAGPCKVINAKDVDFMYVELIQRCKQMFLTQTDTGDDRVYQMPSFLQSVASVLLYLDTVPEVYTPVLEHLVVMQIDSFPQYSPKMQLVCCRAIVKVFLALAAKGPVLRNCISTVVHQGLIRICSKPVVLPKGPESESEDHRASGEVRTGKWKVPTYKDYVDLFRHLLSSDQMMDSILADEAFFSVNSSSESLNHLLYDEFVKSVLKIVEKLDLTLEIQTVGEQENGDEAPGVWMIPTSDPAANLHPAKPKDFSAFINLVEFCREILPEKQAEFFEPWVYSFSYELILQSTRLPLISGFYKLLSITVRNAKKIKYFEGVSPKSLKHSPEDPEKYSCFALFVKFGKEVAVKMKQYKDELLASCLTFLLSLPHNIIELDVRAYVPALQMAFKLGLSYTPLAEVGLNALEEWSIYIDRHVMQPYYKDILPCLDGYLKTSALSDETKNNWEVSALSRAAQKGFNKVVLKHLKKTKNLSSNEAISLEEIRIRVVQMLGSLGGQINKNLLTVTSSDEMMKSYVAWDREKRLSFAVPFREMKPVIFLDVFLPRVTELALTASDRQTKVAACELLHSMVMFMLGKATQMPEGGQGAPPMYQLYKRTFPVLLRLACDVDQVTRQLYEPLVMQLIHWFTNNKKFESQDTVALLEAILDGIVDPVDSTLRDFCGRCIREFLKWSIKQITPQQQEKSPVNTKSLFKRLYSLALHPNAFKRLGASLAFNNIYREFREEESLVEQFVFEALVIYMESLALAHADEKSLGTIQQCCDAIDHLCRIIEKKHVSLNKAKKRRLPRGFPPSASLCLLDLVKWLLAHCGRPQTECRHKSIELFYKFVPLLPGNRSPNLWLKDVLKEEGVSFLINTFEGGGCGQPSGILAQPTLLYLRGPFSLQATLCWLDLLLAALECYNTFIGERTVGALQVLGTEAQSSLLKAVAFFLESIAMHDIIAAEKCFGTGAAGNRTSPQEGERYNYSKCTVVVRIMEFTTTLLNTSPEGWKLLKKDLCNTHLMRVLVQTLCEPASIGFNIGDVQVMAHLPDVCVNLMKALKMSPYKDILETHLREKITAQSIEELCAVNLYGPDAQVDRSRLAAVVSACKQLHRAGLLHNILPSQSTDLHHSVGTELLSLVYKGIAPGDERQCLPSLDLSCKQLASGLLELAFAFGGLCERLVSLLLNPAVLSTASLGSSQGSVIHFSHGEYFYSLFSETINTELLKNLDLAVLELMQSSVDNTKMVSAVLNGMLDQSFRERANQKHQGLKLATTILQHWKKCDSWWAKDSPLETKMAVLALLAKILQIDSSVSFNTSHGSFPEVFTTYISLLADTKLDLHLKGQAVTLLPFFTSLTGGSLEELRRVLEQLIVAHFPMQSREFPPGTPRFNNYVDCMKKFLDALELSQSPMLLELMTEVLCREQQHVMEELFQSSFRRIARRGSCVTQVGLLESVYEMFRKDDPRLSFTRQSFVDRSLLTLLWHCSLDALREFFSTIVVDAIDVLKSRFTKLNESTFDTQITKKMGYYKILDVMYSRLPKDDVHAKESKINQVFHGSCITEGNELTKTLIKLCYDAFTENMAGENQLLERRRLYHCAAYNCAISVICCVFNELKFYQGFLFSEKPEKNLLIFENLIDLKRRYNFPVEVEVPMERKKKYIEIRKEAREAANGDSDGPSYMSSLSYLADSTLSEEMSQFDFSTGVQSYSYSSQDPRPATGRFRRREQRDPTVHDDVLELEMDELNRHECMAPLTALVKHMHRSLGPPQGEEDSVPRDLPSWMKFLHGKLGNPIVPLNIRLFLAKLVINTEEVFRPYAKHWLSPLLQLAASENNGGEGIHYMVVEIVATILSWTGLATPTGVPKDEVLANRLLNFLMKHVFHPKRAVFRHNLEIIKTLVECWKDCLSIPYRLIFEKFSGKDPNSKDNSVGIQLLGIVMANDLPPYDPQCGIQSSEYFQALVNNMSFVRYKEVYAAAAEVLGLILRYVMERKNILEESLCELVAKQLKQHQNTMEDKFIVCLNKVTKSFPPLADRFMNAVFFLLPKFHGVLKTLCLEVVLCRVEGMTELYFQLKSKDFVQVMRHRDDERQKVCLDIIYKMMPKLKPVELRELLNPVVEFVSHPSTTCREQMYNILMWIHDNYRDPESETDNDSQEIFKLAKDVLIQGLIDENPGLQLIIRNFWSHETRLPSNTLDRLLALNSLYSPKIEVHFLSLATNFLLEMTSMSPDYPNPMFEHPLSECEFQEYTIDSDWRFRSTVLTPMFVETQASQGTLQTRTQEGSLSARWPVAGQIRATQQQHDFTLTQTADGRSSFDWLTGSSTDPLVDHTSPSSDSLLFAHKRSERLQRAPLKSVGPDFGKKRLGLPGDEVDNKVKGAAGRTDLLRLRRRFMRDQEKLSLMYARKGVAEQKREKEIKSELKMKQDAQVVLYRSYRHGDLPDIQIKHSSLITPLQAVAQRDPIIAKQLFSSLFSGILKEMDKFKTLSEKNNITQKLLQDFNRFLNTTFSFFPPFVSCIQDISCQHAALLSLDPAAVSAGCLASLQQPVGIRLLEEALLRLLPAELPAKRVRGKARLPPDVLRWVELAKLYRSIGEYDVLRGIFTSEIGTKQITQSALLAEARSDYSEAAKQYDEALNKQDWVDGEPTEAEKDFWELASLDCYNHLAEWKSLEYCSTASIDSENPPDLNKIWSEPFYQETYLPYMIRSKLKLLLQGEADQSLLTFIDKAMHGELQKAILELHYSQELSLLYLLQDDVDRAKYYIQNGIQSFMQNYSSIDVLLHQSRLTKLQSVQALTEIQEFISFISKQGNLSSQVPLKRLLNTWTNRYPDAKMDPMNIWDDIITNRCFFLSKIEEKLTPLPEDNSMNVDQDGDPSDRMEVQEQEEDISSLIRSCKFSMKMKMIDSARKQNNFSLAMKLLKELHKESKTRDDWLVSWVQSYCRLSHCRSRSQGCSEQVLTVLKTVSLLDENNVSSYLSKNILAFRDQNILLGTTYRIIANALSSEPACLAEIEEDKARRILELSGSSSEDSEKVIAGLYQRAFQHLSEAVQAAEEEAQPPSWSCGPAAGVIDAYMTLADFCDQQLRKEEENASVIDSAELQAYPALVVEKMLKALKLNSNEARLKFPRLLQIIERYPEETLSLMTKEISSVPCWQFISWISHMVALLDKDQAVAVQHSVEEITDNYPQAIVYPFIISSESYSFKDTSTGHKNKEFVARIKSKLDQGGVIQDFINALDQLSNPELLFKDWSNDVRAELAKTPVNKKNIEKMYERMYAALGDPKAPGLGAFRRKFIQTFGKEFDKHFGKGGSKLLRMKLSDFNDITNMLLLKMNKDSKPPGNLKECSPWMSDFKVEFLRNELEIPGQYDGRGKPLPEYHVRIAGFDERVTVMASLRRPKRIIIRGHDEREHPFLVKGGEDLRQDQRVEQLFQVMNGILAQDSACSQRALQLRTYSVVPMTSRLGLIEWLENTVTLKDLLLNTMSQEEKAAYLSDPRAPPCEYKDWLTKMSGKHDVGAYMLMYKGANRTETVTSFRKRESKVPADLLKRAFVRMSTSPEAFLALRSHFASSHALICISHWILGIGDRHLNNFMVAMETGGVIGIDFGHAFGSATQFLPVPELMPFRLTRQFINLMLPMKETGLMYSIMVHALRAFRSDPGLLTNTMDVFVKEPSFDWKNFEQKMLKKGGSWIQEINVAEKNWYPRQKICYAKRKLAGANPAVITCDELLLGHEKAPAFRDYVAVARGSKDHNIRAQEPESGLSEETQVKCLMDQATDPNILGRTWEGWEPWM
Regarding `O=c1cc(N2CCOCC2)oc2c(-c3ccccc3)cccc12` [LY-294002], half-maximal inhibition (IC50) required 1.4 µM.

In turn, `N#Cc1cc(-c2ccncc2)c(CO)nc1O` had an IC50 above 500 µM.

`COc1ccc(COCc2nc(O)c(C#N)cc2-c2ccncc2)cc1`: the IC50 was above 500 µM.

Take `N#Cc1cc(-c2ccncc2)c(/C=N/N)nc1O`: the IC50 worked out at 100 µM.

The term IC50 denotes the concentration that inhibits the measured activity by half.

These data come from ChEMBL document CHEMBL1133828, “Synthesis, crystal structure determination, and biological properties of the DNA-dependent protein kinase (DNA-PK) inhibitor 3-cyano-6-hydrazonomethyl-5-(4-pyridyl)pyrid-[1H]-2-one (OK-1035)” (Bioorg Med Chem Lett, 2001).
